Measurements from US20250009751A1, “FORMULATIONS OF ANTIVIRAL COMPOUNDS” (Merck Sharp & Dohme LLC, priority 2018, published 2025).

Assay: pH-dependent solubility of Compound A
Type: physicochemical
Details: particularly between pH 1-4

Q: For COC(=O)N[C@H](C(=O)N1CCC[C@H]1c1ncc(-c2cc(F)c3c(c2)O[C@@H](c2cnc(C4CC4)s2)n2c-3cc3cc(-c4cnc([C@@H]5CCCN5C(=O)[C@@H](NC(=O)OC)C(C)C)[nH]4)ccc32)[nH]1)C(C)C [Compound A, dimethyl ((2S,2′S)-((2S,2′S)-2,2′-(5,5′-((S)-6-(2-cyclopropylthiazol-5-yl)-1-fluoro-6H-benzo[5,6][1,3]oxazino[3,4-a]indole-3,10-diyl)bis(1H-imidazole-5,2-diyl))bis(pyrrolidine-2,1-diyl))bis(3-methyl-1-oxobutane-2,1-diyl))dicarbamate], which solubility profile is on record?
A: The solubility profile was “sharp pH-dependent solubility profile”.
